According to PubChem BioAssay AID330 (DTP/NCI, 2004):
Several values for one entry are separate records, joined by “and”; a condition that tells them apart may be missing. Equal values may be shown once. Toxic doses and inconclusive results are not listed. How the source made its calls: active means survival T/C of 150% or more; inactive means T/C below 125% in these data.

Tested on: P388 leukemia ip, CD2F1 mice, survival T/C
Experiment: NCI In Vivo Anticancer Drug Screen. Data for tumor model P388 Leukemia (intraperitoneal) in CD2F1 (CDF1) mice
Conditions: endpoint: median survival time, higher = longer survival
Summary of the method: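 Mice carrying the transplanted tumor received test compound or vehicle. Survival was recorded in each group, and the value is the treated-group measurement divided by that of the vehicle-treated control group.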

[1] = dose: 8.75 mg/kg/injection, schedule: Q01DX005 (ip), vehicle: Klucel (hydroxypropylcellulose) (HPC)
[2] = dose: 17.5 mg/kg/injection, schedule: Q01DX005 (ip), vehicle: Klucel (hydroxypropylcellulose) (HPC)
[3] = dose: 35.0 mg/kg/injection, schedule: Q01DX005 (ip), vehicle: Klucel (hydroxypropylcellulose) (HPC)
[4] = dose: 100.0 mg/kg/injection, schedule: Q01DX001 (ip), vehicle: saline with Tween-80
[5] = dose: 200.0 mg/kg/injection, schedule: Q01DX001 (ip), vehicle: saline with Tween-80
[6] = dose: 400.0 mg/kg/injection, schedule: Q01DX001 (ip), vehicle: saline with Tween-80
[7] = dose: 60.0 mg/kg/injection, schedule: Q01DX005 (ip), vehicle: saline with Tween-80
[8] = dose: 120.0 mg/kg/injection, schedule: Q01DX005 (ip), vehicle: saline with Tween-80
[9] = dose: 240.0 mg/kg/injection, schedule: Q01DX005 (ip), vehicle: saline with Tween-80
[10] = dose: 50.0 mg/kg/injection, schedule: Q01DX005 (ip), vehicle: saline with Tween-80
[11] = dose: 100.0 mg/kg/injection, schedule: Q01DX005 (ip), vehicle: saline with Tween-80
[12] = dose: 200.0 mg/kg/injection, schedule: Q01DX005 (ip), vehicle: saline with Tween-80
[13] = dose: 50.0 mg/kg/injection, schedule: Q01DX009 (ip), vehicle: Klucel (hydroxypropylcellulose) (HPC)
[14] = dose: 100.0 mg/kg/injection, schedule: Q01DX009 (ip), vehicle: Klucel (hydroxypropylcellulose) (HPC)
[15] = dose: 200.0 mg/kg/injection, schedule: Q01DX009 (ip), vehicle: Klucel (hydroxypropylcellulose) (HPC)

Measured: T/C

O=C1OC(C2OC(=O)C(=O)C2C(=O)c2ccccc2Cl)C(C(=O)c2ccccc2Cl)C1=O (configuration not stated)
inactive: dose: 15.0 mg/kg/injection, schedule: Q01DX005 (ip), vehicle: saline + Tween-80 + alcohol 99 % of control | dose: 30.0 mg/kg/injection, schedule: Q01DX005 (ip), vehicle: saline + Tween-80 + alcohol 91 % of control

COc1cc2c(c3oc(=O)cc(CCC(=O)O)c13)C1CC(=O)OC1O2 (configuration not stated)
inactive: [1] 101 % of control | [2] 100 % of control | [3] 97 % of control

c1ccc2c(c1)OC1(CCSCC1)O2
inactive: [4] 95 % of control | [5] 95 % of control | [6] 100 % of control

CC(C)=CCCC(C)C1CCC2(CO2)C2CC=C(C)C2C1O (configuration not stated)
inactive: dose: 20.0 mg/kg/injection, schedule: Q01DX009 (ip), vehicle: Klucel (hydroxypropylcellulose) (HPC) 102 % of control | dose: 40.0 mg/kg/injection, schedule: Q01DX009 (ip), vehicle: Klucel (hydroxypropylcellulose) (HPC) 96 % of control | dose: 80.0 mg/kg/injection, schedule: Q01DX009 (ip), vehicle: Klucel (hydroxypropylcellulose) (HPC) 102 % of control | dose: 160.0 mg/kg/injection, schedule: Q01DX009 (ip), vehicle: Klucel (hydroxypropylcellulose) (HPC) 99 % of control

CNC(=O)CCC(NS(=O)(=O)c1ccc(NC(C)=O)cc1)C(=O)O (configuration not stated)
inactive: dose: 100.0 mg/kg/injection, schedule: Q01DX001 (ip), vehicle: Klucel (hydroxypropylcellulose) (HPC) 105 % of control | dose: 200.0 mg/kg/injection, schedule: Q01DX001 (ip), vehicle: Klucel (hydroxypropylcellulose) (HPC) 98 % of control | dose: 400.0 mg/kg/injection, schedule: Q01DX001 (ip), vehicle: Klucel (hydroxypropylcellulose) (HPC) 100 % of control

COC12C=C(C(C)(C)C)C(CC1)C1C(=O)c3c(OC(=O)OCc4ccc([N+](=O)[O-])cc4)ccc(O)c3C(=O)C12 (configuration not stated)
inactive: dose: 30.0 mg/kg/injection, schedule: Q01DX005 (ip), vehicle: saline with Tween-80 91 % of control | [7] 86 % of control and 94 % of control | [8] 91 % of control and 92 % of control | [9] 100 % of control

CC1=NC(=O)CC2=C1C(C)N(Cc1ccccc1)C2=O (configuration not stated)
inactive: dose: 50.0 mg/kg/injection, schedule: Q01DX009 (ip), vehicle: saline 98 % of control | dose: 100.0 mg/kg/injection, schedule: Q01DX009 (ip), vehicle: saline 94 % of control | dose: 200.0 mg/kg/injection, schedule: Q01DX009 (ip), vehicle: saline 99 % of control

NC(Cc1ccc(O)cc1)C(=O)N/N=C/c1ccc2c(c1)OCO2 (configuration not stated)
inactive: [10] 92 % of control | [11] 99 % of control | [12] 103 % of control

C=C1C=CC1=O
inactive: dose: 0.63 mg/kg/injection, schedule: Q01DX009 (ip), vehicle: olive oil, sesame oil, peanut oil 100 % of control | dose: 1.25 mg/kg/injection, schedule: Q01DX009 (ip), vehicle: olive oil, sesame oil, peanut oil 100 % of control and 91 % of control | dose: 2.5 mg/kg/injection, schedule: Q01DX009 (ip), vehicle: olive oil, sesame oil, peanut oil 100 % of control and 93 % of control | dose: 5.0 mg/kg/injection, schedule: Q01DX009 (ip), vehicle: olive oil, sesame oil, peanut oil 100 % of control and 104 % of control | dose: 10.0 mg/kg/injection, schedule: Q01DX009 (ip), vehicle: olive oil, sesame oil, peanut oil 99 % of control and 103 % of control

C/C(=C(/O)c1ccc(Cl)cc1)c1nc2cc(Cl)cc([N+](=O)[O-])c2[nH]c1=O
inactive: dose: 60.0 mg/kg/injection, schedule: Q01DX005 (ip), vehicle: Klucel (hydroxypropylcellulose) (HPC) 100 % of control | dose: 120.0 mg/kg/injection, schedule: Q01DX005 (ip), vehicle: Klucel (hydroxypropylcellulose) (HPC) 107 % of control | dose: 240.0 mg/kg/injection, schedule: Q01DX005 (ip), vehicle: Klucel (hydroxypropylcellulose) (HPC) 111 % of control

C=CCOc1cc2c(cc1C(C)c1cc(OC)c(OC)c(OC)c1)OCO2 (configuration not stated)
inactive: [10] 101 % of control | [11] 99 % of control | [12] 108 % of control

O=C(On1nnc2ccccc2c1=O)c1ccccc1
inactive: dose: 12.5 mg/kg/injection, schedule: Q01DX009 (ip), vehicle: distilled water + Tween-80 100 % of control | dose: 25.0 mg/kg/injection, schedule: Q01DX009 (ip), vehicle: distilled water + Tween-80 102 % of control | dose: 50.0 mg/kg/injection, schedule: Q01DX009 (ip), vehicle: distilled water + Tween-80 94 % of control | dose: 100.0 mg/kg/injection, schedule: Q01DX009 (ip), vehicle: distilled water + Tween-80 106 % of control | dose: 200.0 mg/kg/injection, schedule: Q01DX009 (ip), vehicle: distilled water + Tween-80 103 % of control

CCCC(=O)NC
inactive: dose: 25.0 mg/kg/injection, schedule: Q01DX005 (ip), vehicle: saline 102 % of control | dose: 50.0 mg/kg/injection, schedule: Q01DX005 (ip), vehicle: saline 99 % of control | dose: 100.0 mg/kg/injection, schedule: Q01DX005 (ip), vehicle: saline 110 % of control | dose: 200.0 mg/kg/injection, schedule: Q01DX005 (ip), vehicle: saline 104 % of control | dose: 400.0 mg/kg/injection, schedule: Q01DX005 (ip), vehicle: saline 99 % of control

COC(=O)C(=O)C(C(=O)C(c1ccccc1)c1ccccc1)c1nc2n(c1O)/C(=N/C(=O)Nc1ccc(Cl)cc1)N=N2 (configuration not stated)
inactive: [7] 100 % of control | [8] 98 % of control | [9] 99 % of control

CCCCC(CCCC)=NO
inactive: [10] 108 % of control | [11] 100 % of control

CC(C)=CCSC(N)N
inactive: dose: 7.5 mg/kg/injection, schedule: Q01DX005 (ip), vehicle: saline 99 % of control | dose: 15.0 mg/kg/injection, schedule: Q01DX005 (ip), vehicle: saline 99 % of control | dose: 30.0 mg/kg/injection, schedule: Q01DX005 (ip), vehicle: saline 99 % of control | dose: 60.0 mg/kg/injection, schedule: Q01DX005 (ip), vehicle: saline 101 % of control

O=C1OC(=O)C2C3C=CC(C4C=CC43)C12 (configuration not stated)
inactive: dose: 25.0 mg/kg/injection, schedule: Q01DX009 (ip), vehicle: Klucel (hydroxypropylcellulose) (HPC) 106 % of control | [13] 115 % of control | [14] 115 % of control | [15] 97 % of control

O=C(/C=C/c1ccc(Cl)c(Cl)c1)c1ccccc1
inactive: dose: 200.0 mg/kg/injection, schedule: Q01DX009 (ip), vehicle: saline with Tween-80 100 % of control

NNC1=Nc2cc3c(cc2C(=O)N2C[C@H](O)CC12)OCO3 (some centres not stated)
inactive: [4] 100 % of control | [5] 100 % of control | [6] 99 % of control

C=CCOP1(c2ccccc2)(c2ccccc2)NC(c2ccccc2)(c2ccccc2)C(C(=O)OC)=C1C(=O)OC
inactive: dose: 50.0 mg/kg/injection, schedule: Q01DX005 (ip), vehicle: Klucel (hydroxypropylcellulose) (HPC) 90 % of control | dose: 100.0 mg/kg/injection, schedule: Q01DX005 (ip), vehicle: Klucel (hydroxypropylcellulose) (HPC) 91 % of control | dose: 200.0 mg/kg/injection, schedule: Q01DX005 (ip), vehicle: Klucel (hydroxypropylcellulose) (HPC) 92 % of control

CS1(C)=NC(=O)c2cc([N+](=O)[O-])ccc2N=1
inactive: [7] 94 % of control | [8] 94 % of control | [9] 92 % of control

COC(=O)/C=C\C(=O)O
inactive: dose: 50.0 mg/kg/injection, schedule: Q04DX003 (ip), vehicle: saline 100 % of control | dose: 100.0 mg/kg/injection, schedule: Q04DX003 (ip), vehicle: saline 110 % of control | dose: 200.0 mg/kg/injection, schedule: Q04DX003 (ip), vehicle: saline 120 % of control

COC(=O)C(=O)c1c(C(=O)OC)nc2nnc(N)n2c1-c1ccc(O)c(OC)c1
inactive: [7] 92 % of control | [8] 94 % of control | [9] 94 % of control

CC(C)(C)SC(=S)SCC(=O)c1cc2ccccc2o1
inactive: [10] 100 % of control | [11] 93 % of control | [12] 93 % of control

O=c1oc2nc3ccc(Cl)cc3c(=O)n2c2ccc(Cl)cc12
inactive: [13] 108 % of control | [14] 118 % of control | [15] 104 % of control

O=C1c2ccccc2C(=O)c2cc(NC(=O)C(F)(F)F)ccc21
inactive: dose: 50.0 mg/kg/injection, schedule: Q01DX005 (ip), vehicle: Klucel + Tween-80 99 % of control | dose: 100.0 mg/kg/injection, schedule: Q01DX005 (ip), vehicle: Klucel + Tween-80 95 % of control | dose: 200.0 mg/kg/injection, schedule: Q01DX005 (ip), vehicle: Klucel + Tween-80 96 % of control

COC(=O)C1Cc2cocc2CC(C(=O)OC)N1C(=O)OC(C)(C)C (configuration not stated)
inactive: [1] 99 % of control | [2] 101 % of control | [3] 99 % of control
